Source: patent US8399681B2, “Substituted aminothiazolone indazoles as estrogen related receptor-alpha modulators” (Janssen Pharmaceutica NV, priority 2009, dated 2013)
pEC50: −log10 of the molar value.

Experiments:
Zucker fa/fa male rats = assay: Zucker fa/fa Rat Model Assay; assay type: in vivo; details: dosed orally once a day for 4 days, blood collected at day 5
Description: Zucker fa/fa is a monogenic model of frank diabetes due to a mutation on the fa gene truncating the leptin receptor and preventing its interaction with its peptide hormone. This mutation results in a hyperphagic phenotype and the rodent develops obesity, hyperlipidemia, fasting hyperglycemia and insulin resistance. Zucker fa/fa male rats were received at four weeks of age and allowed to acclimate for one week. At five weeks of age the animals were single housed in cages in a temperature-controlled room with 12-hour light/dark cycle. The rats were allowed ad libitum access to water and food and throughout the study were maintained on a Purina 5008 diet. Animals were sorted based primarily on fed insulin levels and circulating triglycerides. Animals were dosed orally once a day in the morning for 4 days. The vehicle used was either 20% HPβCD (Hydroxypropyl Beta Cyclodextrin) or 15% Vitamin E/30% PEG-400 (Polyethylene Glycol 400). Fed insulin and triglycerides were measured using blood collected from the tail vein at day 5. Serum plasma samples were prepared by centrifugation in EDTA (Ethylenediaminetetraacetic acid) containing tubes, transferred into 96 well plates and stored at −80° C.

[1] = target: T1, ERR1 (also known as ERR-α or ERR-1) (Homo sapiens, UniProt P11474); assay: TR-FRET assay (disruption of co-activator peptide binding); assay type: biochemical; details: 6His-tagged ERR1 LBD, GST-hSRC2 co-activator polypeptide; average of 3 independent experiments
T1 sequence (P11474 193-421 limits assumed): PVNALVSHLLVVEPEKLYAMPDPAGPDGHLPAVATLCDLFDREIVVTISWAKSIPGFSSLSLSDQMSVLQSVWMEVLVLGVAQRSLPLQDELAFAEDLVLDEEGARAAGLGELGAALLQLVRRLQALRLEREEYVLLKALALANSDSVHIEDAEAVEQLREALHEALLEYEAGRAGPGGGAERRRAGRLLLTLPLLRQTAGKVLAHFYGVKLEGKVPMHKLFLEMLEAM
Outline: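 His6-ERR1 LBD (6 nM) with GST-SRC-2 peptide (6 nM), anti-GST Eu cryptate (30 nM) and anti-His XL665 (7.5 nM) in Tris pH 8/KCl/DTT/BSA buffer, equilibrated 4-18 h at 25 °C. Ex 340, em 615/665 nm; hyperbolic dose-response fit, mean of 3 experiments.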

CN1CCN(C2=NC(=O)/C(=C/c3ccc4c(c3)c(C#N)nn4Cc3ccc(Cl)cc3C(F)(F)F)S2)CC1 [Example 223, 1-[4-Chloro-2-(trifluoromethyl)benzyl]-5-{[2-(4-methylpiperazin-1-yl)-4-oxo-1,3-thiazol-5(4H)-ylidene]methyl}-1H-indazole-3-carbonitrile]
% Lowering Fed Insulin Levels (Zucker fa/fa male rats): 77%
% Lowering Fed Triglyceride Levels (Zucker fa/fa male rats): 85%
pEC50 [1]: 7.87
